Molecules are shown by their SMILES. Calls of active or inactive are those of the source. Rule as the data show it, for most assays here: actives have a measured Kd and inactives only a lower limit.

This is an account of results in ChEMBL document CHEMBL3991601, “The target landscape of clinical kinase drugs” (Science, 2017).

Assay [1] has as its target Adenylate kinase 2, mitochondrial (Homo sapiens, UniProt P54819).
Assay [2] deals with Serine/threonine-protein kinase B-raf (Homo sapiens, UniProt P15056).
The target of assay [3] is Cyclin-dependent kinase 12 (Homo sapiens, UniProt Q9NYV4).
The target of assay [4] is Cyclin-dependent kinase 4 (Homo sapiens, UniProt P11802).
For assay [5], the target named is Cyclin-dependent kinase 5 (Homo sapiens, UniProt Q00535).
Assay [6] deals with Dual specificity protein kinase CLK1 (Homo sapiens, UniProt P49759).
Assay [7] has as its target Casein kinase I isoform epsilon (Homo sapiens, UniProt P49674).
The target in assay [8] is Ephrin type-A receptor 4 (Homo sapiens, UniProt P54764).
Assay [9] concerns the target Serine/threonine-protein kinase/endoribonuclease IRE1 (Homo sapiens, UniProt O75460).
Assay [10] deals with Glycogen synthase kinase-3 beta (Homo sapiens, UniProt P49841).
Assay [11] deals with Insulin-like growth factor 1 receptor (Homo sapiens, UniProt P08069).
Assay [12] concerns the target Mitogen-activated protein kinase 10 (Homo sapiens, UniProt P53779).
For assay [13], the target named is T1, Mitogen-activated protein kinase 15 (Homo sapiens, UniProt Q8TD08).
T1 sequence (Q8TD08 whole entry): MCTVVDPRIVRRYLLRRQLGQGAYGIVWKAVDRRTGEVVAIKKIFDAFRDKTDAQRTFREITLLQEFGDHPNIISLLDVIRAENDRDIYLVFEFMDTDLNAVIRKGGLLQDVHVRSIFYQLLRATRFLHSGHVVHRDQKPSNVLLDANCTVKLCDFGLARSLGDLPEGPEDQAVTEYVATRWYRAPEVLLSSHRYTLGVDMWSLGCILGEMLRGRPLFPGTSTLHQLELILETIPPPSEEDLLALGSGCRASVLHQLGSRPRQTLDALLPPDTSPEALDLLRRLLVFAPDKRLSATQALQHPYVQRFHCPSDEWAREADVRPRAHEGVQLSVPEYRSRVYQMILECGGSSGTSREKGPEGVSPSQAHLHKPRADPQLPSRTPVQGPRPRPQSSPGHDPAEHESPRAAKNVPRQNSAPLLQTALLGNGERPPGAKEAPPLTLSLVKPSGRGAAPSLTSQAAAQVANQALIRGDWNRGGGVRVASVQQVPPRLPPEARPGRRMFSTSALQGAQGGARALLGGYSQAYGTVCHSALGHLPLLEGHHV

Assay [14] addresses T2, cGMP-dependent protein kinase 1 (Homo sapiens, UniProt Q13976).
T2 sequence (Q13976 whole entry): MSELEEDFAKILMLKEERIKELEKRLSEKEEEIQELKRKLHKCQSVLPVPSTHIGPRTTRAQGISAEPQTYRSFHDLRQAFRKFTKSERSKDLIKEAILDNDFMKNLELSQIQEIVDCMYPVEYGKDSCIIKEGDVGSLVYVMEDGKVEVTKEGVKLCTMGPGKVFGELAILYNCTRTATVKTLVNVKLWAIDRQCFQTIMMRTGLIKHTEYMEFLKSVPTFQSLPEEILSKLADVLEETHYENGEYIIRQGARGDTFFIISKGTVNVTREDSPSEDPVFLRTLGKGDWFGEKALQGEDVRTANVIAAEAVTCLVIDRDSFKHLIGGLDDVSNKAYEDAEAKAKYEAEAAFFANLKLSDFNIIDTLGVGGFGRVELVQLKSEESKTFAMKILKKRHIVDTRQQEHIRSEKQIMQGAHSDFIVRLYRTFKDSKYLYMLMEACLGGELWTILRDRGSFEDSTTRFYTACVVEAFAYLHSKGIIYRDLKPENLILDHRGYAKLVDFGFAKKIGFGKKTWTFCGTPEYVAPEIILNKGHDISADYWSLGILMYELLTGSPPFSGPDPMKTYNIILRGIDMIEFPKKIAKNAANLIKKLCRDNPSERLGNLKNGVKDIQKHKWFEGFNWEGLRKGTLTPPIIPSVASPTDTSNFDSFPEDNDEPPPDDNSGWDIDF

For assay [15], the target named is T3, Signal recognition particle receptor subunit alpha (Homo sapiens, UniProt P08240).
T3 sequence (P08240 whole entry): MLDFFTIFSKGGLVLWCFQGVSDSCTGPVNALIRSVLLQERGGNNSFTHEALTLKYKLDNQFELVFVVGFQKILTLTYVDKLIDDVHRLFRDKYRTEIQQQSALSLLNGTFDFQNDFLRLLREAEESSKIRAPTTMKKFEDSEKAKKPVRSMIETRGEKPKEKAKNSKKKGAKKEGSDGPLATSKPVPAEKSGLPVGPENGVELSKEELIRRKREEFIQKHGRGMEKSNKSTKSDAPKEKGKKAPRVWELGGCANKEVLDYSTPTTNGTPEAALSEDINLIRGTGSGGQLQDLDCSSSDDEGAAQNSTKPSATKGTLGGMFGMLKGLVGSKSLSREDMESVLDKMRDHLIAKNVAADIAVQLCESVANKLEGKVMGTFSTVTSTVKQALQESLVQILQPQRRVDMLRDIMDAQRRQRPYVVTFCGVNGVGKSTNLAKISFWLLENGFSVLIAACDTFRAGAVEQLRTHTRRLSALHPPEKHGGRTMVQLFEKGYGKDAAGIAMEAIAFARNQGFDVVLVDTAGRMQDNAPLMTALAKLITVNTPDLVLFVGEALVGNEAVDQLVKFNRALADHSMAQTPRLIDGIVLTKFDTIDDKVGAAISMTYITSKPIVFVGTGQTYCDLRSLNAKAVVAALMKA

Assay [16] deals with T4, EKC/KEOPS complex subunit TP53RK (Homo sapiens, UniProt Q96S44).
T4 sequence (Q96S44 whole entry): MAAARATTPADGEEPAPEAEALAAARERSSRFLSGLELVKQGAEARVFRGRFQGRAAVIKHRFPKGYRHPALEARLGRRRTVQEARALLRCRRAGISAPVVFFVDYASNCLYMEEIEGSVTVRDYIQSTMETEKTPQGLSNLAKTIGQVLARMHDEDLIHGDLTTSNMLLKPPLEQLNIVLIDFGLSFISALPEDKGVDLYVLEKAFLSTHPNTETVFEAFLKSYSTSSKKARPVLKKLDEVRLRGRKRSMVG
Also: in the data inactive means no Kd found up to 30 µM.

Chain of Glycogen synthase kinase-3 beta (P49841 whole entry): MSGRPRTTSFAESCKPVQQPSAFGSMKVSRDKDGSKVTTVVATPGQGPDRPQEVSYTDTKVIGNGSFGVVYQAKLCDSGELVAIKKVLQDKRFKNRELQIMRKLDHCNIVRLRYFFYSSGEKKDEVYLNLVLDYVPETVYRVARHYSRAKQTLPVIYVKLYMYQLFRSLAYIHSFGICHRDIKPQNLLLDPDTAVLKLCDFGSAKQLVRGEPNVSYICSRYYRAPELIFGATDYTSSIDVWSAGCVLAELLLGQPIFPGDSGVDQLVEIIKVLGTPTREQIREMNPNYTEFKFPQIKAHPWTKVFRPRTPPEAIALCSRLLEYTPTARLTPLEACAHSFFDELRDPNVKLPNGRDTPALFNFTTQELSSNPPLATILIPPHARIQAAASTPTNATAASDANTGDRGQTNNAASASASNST
Chain of Serine/threonine-protein kinase B-raf (P15056 whole entry): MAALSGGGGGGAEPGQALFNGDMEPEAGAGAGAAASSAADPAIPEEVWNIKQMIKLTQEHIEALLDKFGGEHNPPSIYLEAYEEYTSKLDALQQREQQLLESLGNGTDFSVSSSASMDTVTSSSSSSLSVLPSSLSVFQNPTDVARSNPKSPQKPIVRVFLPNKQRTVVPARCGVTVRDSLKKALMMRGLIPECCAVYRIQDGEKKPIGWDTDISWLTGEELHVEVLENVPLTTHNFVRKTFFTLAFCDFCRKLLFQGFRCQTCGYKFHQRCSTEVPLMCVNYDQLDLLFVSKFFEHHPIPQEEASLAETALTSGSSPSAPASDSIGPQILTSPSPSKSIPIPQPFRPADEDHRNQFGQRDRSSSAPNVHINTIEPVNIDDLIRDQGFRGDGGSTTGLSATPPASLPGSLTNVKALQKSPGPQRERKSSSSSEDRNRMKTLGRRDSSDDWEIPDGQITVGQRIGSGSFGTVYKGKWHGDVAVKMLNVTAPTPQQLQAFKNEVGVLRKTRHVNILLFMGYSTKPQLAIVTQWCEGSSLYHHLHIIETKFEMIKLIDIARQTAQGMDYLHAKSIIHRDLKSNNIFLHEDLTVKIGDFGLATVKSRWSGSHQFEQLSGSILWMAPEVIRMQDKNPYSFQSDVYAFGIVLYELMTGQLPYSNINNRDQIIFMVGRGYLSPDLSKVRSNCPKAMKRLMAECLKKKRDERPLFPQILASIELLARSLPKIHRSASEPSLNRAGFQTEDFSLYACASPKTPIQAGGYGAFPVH
Chain of Casein kinase I isoform epsilon (P49674 whole entry, canonical isoform): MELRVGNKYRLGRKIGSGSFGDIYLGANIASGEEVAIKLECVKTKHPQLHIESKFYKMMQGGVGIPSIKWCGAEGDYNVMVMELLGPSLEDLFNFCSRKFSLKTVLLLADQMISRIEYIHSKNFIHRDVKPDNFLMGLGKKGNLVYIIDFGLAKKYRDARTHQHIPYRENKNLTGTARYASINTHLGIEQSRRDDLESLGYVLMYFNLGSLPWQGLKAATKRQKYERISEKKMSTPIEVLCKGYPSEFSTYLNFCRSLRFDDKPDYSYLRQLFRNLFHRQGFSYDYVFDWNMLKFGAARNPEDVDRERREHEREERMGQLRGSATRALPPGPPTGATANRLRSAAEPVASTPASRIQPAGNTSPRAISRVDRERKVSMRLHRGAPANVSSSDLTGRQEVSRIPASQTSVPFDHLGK
Chain of Ephrin type-A receptor 4 (P54764 whole entry): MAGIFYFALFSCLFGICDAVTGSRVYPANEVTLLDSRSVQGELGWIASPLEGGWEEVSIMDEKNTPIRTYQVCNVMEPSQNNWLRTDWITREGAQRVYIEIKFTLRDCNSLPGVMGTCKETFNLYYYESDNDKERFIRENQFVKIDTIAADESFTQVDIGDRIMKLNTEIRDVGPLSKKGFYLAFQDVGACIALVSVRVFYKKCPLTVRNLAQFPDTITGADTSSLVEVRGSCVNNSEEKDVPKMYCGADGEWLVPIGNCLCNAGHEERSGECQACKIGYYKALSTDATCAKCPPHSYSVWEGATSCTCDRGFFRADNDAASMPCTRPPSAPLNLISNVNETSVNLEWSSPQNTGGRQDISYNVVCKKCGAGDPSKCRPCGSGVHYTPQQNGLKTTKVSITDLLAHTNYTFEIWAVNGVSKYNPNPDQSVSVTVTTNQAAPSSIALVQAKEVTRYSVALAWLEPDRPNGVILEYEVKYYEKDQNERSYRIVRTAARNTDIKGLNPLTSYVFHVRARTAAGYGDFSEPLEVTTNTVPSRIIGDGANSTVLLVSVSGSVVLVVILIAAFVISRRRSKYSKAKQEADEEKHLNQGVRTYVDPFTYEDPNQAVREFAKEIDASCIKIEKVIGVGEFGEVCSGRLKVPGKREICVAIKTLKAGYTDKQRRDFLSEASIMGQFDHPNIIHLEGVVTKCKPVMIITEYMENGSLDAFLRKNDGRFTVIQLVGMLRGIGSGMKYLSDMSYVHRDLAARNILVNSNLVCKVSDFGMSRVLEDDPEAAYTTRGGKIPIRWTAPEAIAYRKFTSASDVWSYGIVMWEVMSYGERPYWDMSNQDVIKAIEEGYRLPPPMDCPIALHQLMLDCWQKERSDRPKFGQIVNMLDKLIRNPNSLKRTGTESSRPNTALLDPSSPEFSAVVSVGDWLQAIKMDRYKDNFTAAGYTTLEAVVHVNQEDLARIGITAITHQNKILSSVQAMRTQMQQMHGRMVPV
Chain of Mitogen-activated protein kinase 10 (P53779 whole entry): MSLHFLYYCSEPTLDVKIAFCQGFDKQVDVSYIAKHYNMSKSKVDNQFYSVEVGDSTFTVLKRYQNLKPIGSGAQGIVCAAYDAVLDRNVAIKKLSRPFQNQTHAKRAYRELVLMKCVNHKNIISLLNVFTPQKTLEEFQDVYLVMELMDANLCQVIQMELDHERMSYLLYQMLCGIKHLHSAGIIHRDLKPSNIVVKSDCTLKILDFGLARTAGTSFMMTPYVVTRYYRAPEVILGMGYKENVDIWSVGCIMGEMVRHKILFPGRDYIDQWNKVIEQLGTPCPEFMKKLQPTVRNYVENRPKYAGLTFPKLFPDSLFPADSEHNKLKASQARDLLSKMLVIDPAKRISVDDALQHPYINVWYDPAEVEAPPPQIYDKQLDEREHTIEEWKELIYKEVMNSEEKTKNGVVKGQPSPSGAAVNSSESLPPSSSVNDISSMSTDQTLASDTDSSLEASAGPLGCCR
Chain of Insulin-like growth factor 1 receptor (P08069 31-736 limits assumed): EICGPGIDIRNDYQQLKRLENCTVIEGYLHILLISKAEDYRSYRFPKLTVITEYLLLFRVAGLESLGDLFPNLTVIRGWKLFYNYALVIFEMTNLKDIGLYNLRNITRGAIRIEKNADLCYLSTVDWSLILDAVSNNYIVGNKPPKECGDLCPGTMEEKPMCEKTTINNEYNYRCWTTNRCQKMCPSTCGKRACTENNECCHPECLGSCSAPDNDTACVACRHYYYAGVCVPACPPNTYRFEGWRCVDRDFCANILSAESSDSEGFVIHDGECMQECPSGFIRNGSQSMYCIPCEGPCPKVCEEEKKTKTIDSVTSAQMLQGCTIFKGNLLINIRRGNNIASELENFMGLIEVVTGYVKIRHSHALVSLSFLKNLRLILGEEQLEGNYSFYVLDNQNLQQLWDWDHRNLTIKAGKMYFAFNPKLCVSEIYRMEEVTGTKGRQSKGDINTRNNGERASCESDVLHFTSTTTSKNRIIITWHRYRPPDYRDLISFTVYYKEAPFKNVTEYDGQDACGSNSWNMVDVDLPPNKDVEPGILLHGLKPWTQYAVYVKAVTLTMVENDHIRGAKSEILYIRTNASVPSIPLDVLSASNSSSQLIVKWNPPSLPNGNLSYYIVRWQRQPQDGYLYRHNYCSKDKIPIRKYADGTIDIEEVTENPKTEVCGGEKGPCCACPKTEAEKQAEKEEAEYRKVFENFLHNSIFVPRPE
Chain of Insulin-like growth factor 1 receptor (P08069 741-1367 limits assumed): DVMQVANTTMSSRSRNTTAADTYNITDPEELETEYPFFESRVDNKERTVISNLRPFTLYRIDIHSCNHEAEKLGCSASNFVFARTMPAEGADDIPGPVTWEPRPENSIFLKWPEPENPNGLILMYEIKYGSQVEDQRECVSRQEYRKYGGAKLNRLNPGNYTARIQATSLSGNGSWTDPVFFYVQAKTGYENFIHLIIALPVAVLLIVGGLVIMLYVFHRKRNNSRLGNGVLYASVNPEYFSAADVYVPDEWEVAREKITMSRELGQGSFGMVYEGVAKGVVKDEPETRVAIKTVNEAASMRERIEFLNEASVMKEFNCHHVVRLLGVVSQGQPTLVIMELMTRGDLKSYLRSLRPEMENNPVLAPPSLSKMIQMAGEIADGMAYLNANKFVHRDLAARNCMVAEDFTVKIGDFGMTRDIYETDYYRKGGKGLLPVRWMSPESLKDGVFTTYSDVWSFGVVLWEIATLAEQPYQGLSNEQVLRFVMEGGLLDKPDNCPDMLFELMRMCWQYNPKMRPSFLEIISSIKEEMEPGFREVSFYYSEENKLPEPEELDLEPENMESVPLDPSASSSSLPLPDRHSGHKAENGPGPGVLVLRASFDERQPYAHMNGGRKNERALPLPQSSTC
Chain of Dual specificity protein kinase CLK1 (P49759 whole entry, canonical isoform): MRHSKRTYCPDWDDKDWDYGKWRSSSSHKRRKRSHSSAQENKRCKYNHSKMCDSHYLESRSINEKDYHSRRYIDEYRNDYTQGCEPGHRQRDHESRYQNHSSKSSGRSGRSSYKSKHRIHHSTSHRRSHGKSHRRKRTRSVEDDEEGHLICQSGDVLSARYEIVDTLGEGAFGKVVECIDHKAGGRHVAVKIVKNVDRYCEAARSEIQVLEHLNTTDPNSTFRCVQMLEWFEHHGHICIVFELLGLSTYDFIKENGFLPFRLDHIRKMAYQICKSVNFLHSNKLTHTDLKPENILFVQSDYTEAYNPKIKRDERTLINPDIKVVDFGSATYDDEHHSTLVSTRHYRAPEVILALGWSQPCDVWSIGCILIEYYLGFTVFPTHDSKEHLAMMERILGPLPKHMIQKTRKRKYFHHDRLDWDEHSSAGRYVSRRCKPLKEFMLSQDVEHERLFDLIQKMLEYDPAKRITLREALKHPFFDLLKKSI

Broadly, the Kd is a measure of binding affinity in units of concentration. Take `COc1c(OCCCN2CCOCC2)ccc2c1N=C(NC(=O)c1cnc(N)nc1)N1CCN=C21` [COPANLISIB]: the Kd in assay [1], in assay [2], in assay [3], in assay [4], in assay [5] and in [6] was > 30 µM (inactive) throughout. Besides, the Kd in [7], in assay [8], in assay [9], in assay [10], in [11] and in [12] was > 30 µM (inactive) each time. The Kd in [13], in assay [14], in [15] and in [16] was > 30 µM (inactive) each time.

`C#Cc1cccc(Nc2ncnc3cc(OC)c(OCCCCCCC(=O)NO)cc23)c1` [CUDC-101]: the Kd in assay [1] is 1.04 µM (active); in [2], > 30 µM (inactive); in [3], > 30 µM (inactive); in [4], > 30 µM (inactive); in assay [5], > 30 µM (inactive); in assay [6] it was > 30 µM (inactive). Besides, the Kd in assay [7], in [8], in assay [9], in assay [10], in [11] and in assay [12] was > 30 µM (inactive) in each case. Moreover, the Kd in assay [13], in assay [14], in assay [15] and in assay [16] was > 30 µM (inactive) each time.

`Cc1cccc(-c2nn3c(c2-c2ccnc4ccc(C(N)=O)cc24)CCC3)n1` [GALUNISERTIB]: the Kd in assay [1], in assay [2], in assay [3], in [4], in assay [5] and in [6] was > 30 µM (inactive) each time. Also, the Kd in assay [7] was 7.9 µM (active); in [8] it was > 30 µM (inactive); in assay [9], > 30 µM (inactive); in [10], > 30 µM (inactive); in assay [11] it was > 30 µM (inactive); in [12], > 30 µM (inactive). Also, the Kd in assay [13], in assay [14], in assay [15] and in assay [16] was > 30 µM (inactive) throughout.

Turning to `COc1ccc(S(=O)(=O)N(C(C)=O)c2ccccc2/C=C/c2cc[n+]([O-])cc2)cc1` [HMN-214], the Kd in assay [1], in assay [2], in assay [3], in assay [4], in assay [5] and in assay [6] was > 30 µM (inactive) throughout. Further, the Kd in assay [7], in [8], in [9], in [10], in [11] and in [12] was > 30 µM (inactive) throughout. The Kd in assay [13], in assay [14], in assay [15] and in [16] was > 30 µM (inactive) each time.

Turning to `Cn1cc(-c2cnc3ccc4ccc(CS(=O)(=O)NCc5ccccn5)cc4c(=O)c3c2)cn1` [MK-8033], the Kd in [1], in assay [2], in assay [3], in assay [4], in [5] and in assay [6] was > 30 µM (inactive) throughout. Moreover, the Kd in [7], in [8], in [9], in assay [10], in [11] and in assay [12] was > 30 µM (inactive) throughout. The Kd in [13], in [14], in assay [15] and in [16] was > 30 µM (inactive) throughout.

On to `CCCCCCCCCCCCCCCCCCOP(=O)([O-])OC1CC[N+](C)(C)CC1` [PERIFOSINE], for which the Kd in assay [1], in [2], in [3], in assay [4], in assay [5] and in assay [6] was > 30 µM (inactive) throughout. The Kd in [7], in assay [8], in [9], in assay [10], in assay [11] and in assay [12] was > 30 µM (inactive) in each case. Further, the Kd in assay [13], in assay [14], in [15] and in assay [16] was > 30 µM (inactive) in each case.

For `Cc1nc(Nc2n[nH]c3c2CN(C(=O)N[C@H](CN(C)C)c2ccccc2)C3(C)C)c2sccc2n1` [PF-03758309], the Kd in assay [1] is > 30 µM (inactive); in [2] it was > 30 µM (inactive); in assay [3], > 30 µM (inactive); in assay [4], > 30 µM (inactive); in assay [5] it was > 30 µM (inactive); in assay [6] it was 0.09 µM (active). The Kd was > 30 µM (inactive) in assay [7]; > 30 µM (inactive) in assay [8]; > 30 µM (inactive) in assay [9]; 0.667 µM (active) in assay [10]; > 30 µM (inactive) in [11]; > 30 µM (inactive) in assay [12]. Also, the Kd in assay [13] is > 30 µM (inactive); in assay [14], 0.808 µM (active); in assay [15], > 30 µM (inactive); in assay [16], > 30 µM (inactive).
